Assay results from patent US7368414B2, “Fungicidal mixtures” (BASF Aktiengesellschaft, priority 2000, dated 2008).

System: Plasmopara viticola
Test: Activity against downy mildew of grapes caused by Plasmopara viticola (protective, potted vines)
Format: in vivo
Settings: individual active compound
Protocol: The active compounds, separately or together, were formulated as 10% emulsion in a mixture of 63% by weight of cyclohexanone and 27% by weight of emulsifier, and diluted with water to the desired concentration.
Evaluation was carried out by determining the infected leaf areas in percent. These percentages were converted into efficacies. The efficacy (w) was calculated as follows using Abbot's formula: w=(1−α)·100/β • α corresponds to the fungal infection of the treated plants in % and • β corresponds to the fungal infection of the untreated (control) plants in %
An efficacy of 0 means that the infection level of the treated plants corresponds to that of the untreated control plants; an efficacy of 100 means that the treated plants were not infected.
The expected efficacies of the mixtures of the active compounds were determined using Colby's formula [R. S. Colby, Weeds 15, 20-22 (1967)] and compared with the observed efficacies. Colby Formula: E=x+y−x·y/100 • E expected efficacy, expressed in % of the untreated control, when using the mixture of the active compounds A and B at the concentrations a and b • x efficacy, expressed in % of the untreated control, when using the active compound A at a concentration a • y efficacy, expressed in % of the untreated control, when using the active compound B at a concentration b
Leaves of potted vines of the cultivar “Müller-Thurgau” were sprayed to run off point with an aqueous preparation of active compound which had been prepared from a stock solution comprising 10% of active compound, 85% of cyclohexanone and 5% of emulsifier. The next day, the undersides of the leaves were inoculated with an aqueous zoospore suspension of Plasmopara viticola. The vines were then initially placed at 24° C. in a chamber saturated with water vapor for 48 hours and then for 5 days in a greenhouse at 20-30° C. After this period of time, the plants were once more placed into a moist chamber for 16 hours to promote sporangiophore eruption. The extent of the development of the disease on the undersides of the leaves was then determined visually.

## Cc1ccc(-c2c(Cl)nc(C#N)n2S(=O)(=O)N(C)C)cc1 [IIa, cyazofamid]
0.25 ppm in the spray liquor, vines Müller-Thurgau
  Efficacy in % of the untreated control: 14%
1 ppm in the spray liquor
  Efficacy in % of the untreated control: 57%
4 ppm in the spray liquor
  Efficacy in % of the untreated control: 71%
